Experimental findings from US11528912B2, “Bacillus methylotrophicus strain DR-08 producing natural volatile compound and having antibacterial activity, and use thereof” (GLOBAL AGRO CO., LTD., priority 2016, dated 2022) are described below.

What all share (assay type): cell-based
For assay [1], the system named is Clavibacter michiganensis subsp. michiganensis. Put plainly: 96-well microplate bioassay, MIC. Particulars: read-out: Minimum inhibitory concentration (MIC).
Assay [2] deals with Pectobacterium chrysanthemi. Put plainly: 96-well microplate bioassay, MIC. More on the design: key: —: Not active. The procedure: (§1) The butanol extract produced as in Example 3 was dissolved in methanol at a level of 5 mg/mL, and antibacterial activity thereof against various plant pathogens was examined.
(§2) Then, dilution with sterilized water was performed to reach 10^6 CFU/ml, and inoculation into a 96-well plate was performed.
(§3) For the butanol extract of the Bacillus sp. strain DR-08, the butanol extract of the strain DR-08 and streptomycin sulfate as a control agent were made to have the highest concentrations of 500·μg/mL and 100 μg/mL, respectively, in a TSB medium into which 14 various phytopathogenic bacteria including Gram-negative and Gram-positive bacteria had been inoculated. Then, starting from the next well, the concentrations were decreased by 2-fold using an octapipette. The butanol extract of the strain DR-08 was used by being sequentially diluted by 2-fold from 500 μg/mL at the highest down to 15.6 μg/mL, and streptomycin sulfate as a control agent was used by being sequentially diluted by 2-fold from 100 μg/mL at the highest down to 3.1 μg/mL. Standing culture was performed at optimal growth conditions, and then growth of the phytopathogenic bacteria was measured at an absorbance of 595 nm with a microplate reader. Then, a minimum growth inhibitory concentration (MIC) value was determined.

The test system of assay [3] is Acidovorax avenae subsp. cattleyae. Put plainly: 96-well microplate bioassay, MIC. Further details: key: —: Not active. As for the experimental part:
as §1, §2, §3

Assay [4] relates to Xanthomonas oryzae pv. oryzae. As to the kind of experiment: microbe, parasite or virus in culture. Particulars: read-out: Minimum inhibitory concentration (MIC).
The subject of assay [5] is Pectobacterium carotovora subsp. carotovora. As to the kind of experiment: 96-well microplate bioassay, MIC. Particulars: read-out: Minimum inhibitory concentration (MIC). As for the experimental part:
as §1, §2, §3

For assay [6], the system named is Pseudomonas syringae pv. actinidiae. Put plainly: 96-well microplate bioassay, MIC. Conditions: read-out: Minimum inhibitory concentration (MIC). As for the experimental part:
as §1, §2, §3

Assay [7] has as its system Agrobacterium tumefaciens. As to the kind of experiment: 96-well microplate bioassay, MIC. Particulars: read-out: Minimum inhibitory concentration (MIC). As for the experimental part:
as §1, §2, §3

Assay [8] concerns Acidovorax konjaci. Put plainly: 96-well microplate bioassay, MIC. Particulars: Paracidovorax konjaci; read-out: Minimum inhibitory concentration (MIC). The procedure: as §1, §2, §3
Assay [9] deals with Pseudomonas syringae pv. lachrymans. Put plainly: 96-well microplate bioassay, MIC. Conditions: read-out: Minimum inhibitory concentration (MIC). As for the experimental part:
as §1, §2, §3

Assay [10] deals with Xanthomonas arboricola pv. pruni. As to the kind of experiment: 96-well microplate bioassay, MIC. Conditions: read-out: Minimum inhibitory concentration (MIC). As for the experimental part:
as §1, §2, §3

Assay [11] has the same test system. As to the kind of experiment: microbe, parasite or virus in culture. Conditions: 48 h, read-out: Clear zone.
The subject of assay [12] is Xanthomonas euvesicatoria. As to the kind of experiment: microbe, parasite or virus in culture. Particulars: read-out: Minimum inhibitory concentration (MIC).
The subject of assay [13] is Burkholderia glumae. As to the kind of experiment: microbe, parasite or virus in culture. Conditions: read-out: Minimum inhibitory concentration (MIC).
The subject of assay [14] is Ralstonia solanacearum. As to the kind of experiment: microbe, parasite or virus in culture. Particulars: read-out: Minimum inhibitory concentration (MIC).
The subject of assay [15] is Xanthomonas axonopodis pv. citri. As to the kind of experiment: 96-well microplate bioassay, MIC. Conditions: read-out: Minimum inhibitory concentration (MIC).

Where a name gives a salt, the structure may show the parent alone.

As to `[H]/N=C(/N)N[C@H]1[C@H](O)[C@@H](O)[C@H](O[C@@H]2O[C@@H](C)[C@](O)(C=O)[C@H]2O[C@@H]2O[C@@H](CO)[C@H](O)[C@@H](O)[C@@H]2NC)[C@@H](N/C(N)=N\[H])[C@@H]1O` [Streptomycin sulfate, streptomycin sulfate], the MIC in assay [1] worked out at 25 µg/mL; in [4] it was 3.12 µg/mL; in assay [5] it was 12.5 µg/mL; in assay [6] it was 12.5 µg/mL; in [7], 100 µg/mL; in assay [8], 6.25 µg/mL. For the same compound, the MIC in assay [9] came to 50 µg/mL; in [10] it was 12.5 µg/mL; in assay [12] it was 12.5 µg/mL; in [13], 12.5 µg/mL; in [14], 3.12 µg/mL; in assay [15], 6.25 µg/mL. Also, the “Minimum inhibitory concentration (MIC)” value in assay [2] and in assay [3] was “—” in each case. In [11], the zone of inhibition at 200 ppm amounted to 4 mm.
